Earlier results on three compounds are cited in patent US20230071314A1, “POLYMERIC COMPOSITIONS FOR SUSTAINED DELIVERY OF VMAT2 INHIBITORS” (Foresee Pharmaceuticals Co., Ltd., priority 2021, published 2023).

Like-named read-outs stand apart in the source and are kept apart here.

Series [1] deals with serotonin 5-HT7 receptors (Homo sapiens, UniProt P34969). As to conditions: Harriott et al. 2018; read-out: off-target binding affinity to serotonin 5-HT7 receptors.
In a further series the target is dopamine D2 (Homo sapiens, UniProt P14416). As to conditions: Harriott et al. 2018; read-out: off-target binding affinity to dopamine D2.
Chain of dopamine D2 (P14416 1-414 isoform P14416-2): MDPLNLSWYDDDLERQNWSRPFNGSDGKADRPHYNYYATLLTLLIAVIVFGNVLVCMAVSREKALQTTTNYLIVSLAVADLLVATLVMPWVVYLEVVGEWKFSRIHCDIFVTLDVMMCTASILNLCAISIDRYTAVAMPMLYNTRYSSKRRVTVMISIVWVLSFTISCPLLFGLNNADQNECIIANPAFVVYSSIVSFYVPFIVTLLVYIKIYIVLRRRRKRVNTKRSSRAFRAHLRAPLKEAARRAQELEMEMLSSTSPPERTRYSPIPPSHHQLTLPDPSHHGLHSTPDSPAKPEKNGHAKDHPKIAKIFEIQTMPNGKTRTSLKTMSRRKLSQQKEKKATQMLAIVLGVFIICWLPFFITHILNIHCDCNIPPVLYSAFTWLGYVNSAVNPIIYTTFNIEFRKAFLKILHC

Chain of serotonin 5-HT7 receptors (P34969 whole entry): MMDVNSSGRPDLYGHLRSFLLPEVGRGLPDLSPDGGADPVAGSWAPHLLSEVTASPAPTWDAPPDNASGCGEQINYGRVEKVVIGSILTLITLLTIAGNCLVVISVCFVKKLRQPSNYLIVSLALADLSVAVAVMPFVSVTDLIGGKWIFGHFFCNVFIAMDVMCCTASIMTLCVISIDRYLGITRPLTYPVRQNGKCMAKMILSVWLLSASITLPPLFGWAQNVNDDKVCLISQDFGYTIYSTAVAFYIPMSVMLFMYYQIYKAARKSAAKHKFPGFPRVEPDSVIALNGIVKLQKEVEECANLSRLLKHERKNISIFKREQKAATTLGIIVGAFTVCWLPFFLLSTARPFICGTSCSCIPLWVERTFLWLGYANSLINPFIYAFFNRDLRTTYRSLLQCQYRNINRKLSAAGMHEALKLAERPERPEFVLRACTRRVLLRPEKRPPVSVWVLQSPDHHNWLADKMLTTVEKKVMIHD

For the compound `COc1cc2c(cc1OC)C1CC(O)C(CC(C)C)CN1CC2` [S,S,S-DHTBZ ((−)-α), [−]-α-dihydrotetrabenazine], the Ki was 71 nM in series [1] and 180 nM on dopamine D2.
As to `COc1cc2c(cc1OC)C1CC(O)C(CC(C)C)CN1CC2` [R,S,S-DHTBZ ((−)-β), [−]-β-dihydrotetrabenazine], the Ki in series [1] is 5.9 nM; at dopamine D2, 53 nM.
For the compound Ivermectin, the “increase of cumulative release” value is, setting by setting: (Ivermectin loading increased from 1% to 2%) 2.4-2.9 times; (Ivermectin loading increased from 1% to 4%) 3.1-3.7 times.
